The source of these data is US20230241205A1, “SARS-COV-2 IMMU[…] AND USES THEREOF” (TScan Therapeutics, Inc., priority 2020, published 2023).

Common to all, as to type: cell-based, human
Assay [1] relates to OC43 and HKU1. The experiment in a line: T-Scan screen, reactivity to corresponding epitopes in OC43 and HKU1 ORFeomes. The settings on record: COVID-19 patient memory CD8+ T cells.
Assay [2] has as its system memory CD8+ T cells of convalescent COVID-19 patients; target cells expressing only HLA-A*02:01. The settings on record: of 9 HLA-A*02:01 patients.
The test system of assay [3] is memory CD8+ T cells of convalescent COVID-19 patients; target cells expressing only HLA-A*03:01. The conditions noted are these: share of screened convalescent patients whose memory CD8+ T cells recognised the epitope; allele A*03.

In the case of KLWAQCVQL, in assay [1], the “reactivity to corresponding epitopes in OC43 and HKU1” value was “do not recognize them”. For the substance “S aa 261-280: 20-aa segment of SARS-CoV-2 S protein recognized in the T-Scan screen”, the “patients in whom epitope or region was identified / recognized” value in assay [2] was 7 of 9. For “ORF1ab aa 3881-3900: 20-aa segment of SARS-CoV-2 ORF1ab recognized in the T-Scan screen”, in assay [2], the “patients in whom epitope or region was identified / recognized” value is listed as 7 of 9.

Take SPRWYFYYL: the “reactivity to corresponding epitopes in OC43 and HKU1” value in assay [1] is “all four of the patients”. For KCYGVSPTKY, the “% of Pts (Screen)” value in assay [3] came out at 100%.
